Common to all, as to assay: relative viability (nuclei count vs DMSO), 5 days (fraction); higher = more cells survive
Compound in the assay “IU1-47 + Alpelisib”: CC1=CC(=C(N1C2=CC=C(C=C2)Cl)C)C(=O)CN3CCCCC3 [IU1-47] + Cc1nc(NC(=O)N2CCC[C@H]2C(N)=O)sc1-c1ccnc(C(C)(C)C(F)(F)F)c1 [Alpelisib] (partner 2 µM)
Put shortly: (§1)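 Nuclei were stained with Hoechst during a one-step fixation (final 0.05% Triton X-100, 1% formaldehyde, 1 ug/ml Hoechst) carried out 5 days after dosing, then counted on 4× images. The cells, lung cancer lines in 1536-well plates, had been dosed by pin tool the day after seeding with one drug alone or a fixed anchor-drug dose plus five library-drug doses (not always all listed) in √10 steps. Relative viability is the nuclei count in treated wells divided by that in vehicle wells, and each value is the median of duplicate plates.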

Compound in the assay “IU1-47 + Palbociclib”: CC1=CC(=C(N1C2=CC=C(C=C2)Cl)C)C(=O)CN3CCCCC3 [IU1-47] + CC(=O)c1c(C)c2cnc(Nc3ccc(N4CCNCC4)cn3)nc2n(C2CCCC2)c1=O [Palbociclib] (partner 0.5 µM)
Put shortly:
as §1

Compound in the assay “IU1-47 + Phenformin”: CC1=CC(=C(N1C2=CC=C(C=C2)Cl)C)C(=O)CN3CCCCC3 [IU1-47] + N=C(N)NC(=N)NCCc1ccccc1 [Phenformin] (partner 250 µM)
Put shortly:
as §1

Compound in the assay “IU1-47 + Luminespib”: CC1=CC(=C(N1C2=CC=C(C=C2)Cl)C)C(=O)CN3CCCCC3 [IU1-47] + CCNC(=O)c1noc(-c2cc(C(C)C)c(O)cc2O)c1-c1ccc(CN2CCOCC2)cc1 [Luminespib] (partner 0.01 µM)
Put shortly:
as §1

With UMC-11, the relative viability came to 1.09 in the assay with IU1-47 + Alpelisib (first compound 0.08 µM); 1.1 in the assay with IU1-47 + Alpelisib (first compound 0.253 µM); 1.02 with IU1-47 + Alpelisib (first compound 0.8 µM); 1.24 with IU1-47 + Alpelisib (first compound 2.53 µM); 0.735 in the assay with IU1-47 + Alpelisib (first compound 8 µM); 0.353 with IU1-47 + Palbociclib (first compound 0.08 µM). The relative viability amounted to 0.339 with IU1-47 + Palbociclib (first compound 0.253 µM); 0.333 with IU1-47 + Palbociclib (first compound 0.8 µM); 0.322 with IU1-47 + Palbociclib (first compound 2.53 µM); 0.351 with IU1-47 + Palbociclib (first compound 8 µM); 0.315 with IU1-47 + Phenformin (first compound 0.08 µM); 0.326 with IU1-47 + Phenformin (first compound 0.253 µM). The relative viability in the assay with IU1-47 + Phenformin (first compound 0.8 µM) worked out at 0.322; in the assay with IU1-47 + Phenformin (first compound 2.53 µM) it was 0.349; with IU1-47 + Phenformin (first compound 8 µM), 0.367; with IU1-47 + Luminespib (first compound 0.08 µM), 1.08; in the assay with IU1-47 + Luminespib (first compound 0.253 µM), 0.974; with IU1-47 + Luminespib (first compound 0.8 µM), 1.09. For the same cell line, the relative viability in the assay with IU1-47 + Luminespib (first compound 2.53 µM) was found to be 1.06; with IU1-47 + Luminespib (first compound 8 µM), 0.938.

The record behind these values is the supplement of paper PMC10307832.
